PMC6116705, “Design, synthesis, in vitro antiproliferative activity and apoptosis-inducing studies of 1-(3′,4′,5′-trimethoxyphenyl)-3-(2′-alkoxycarbonylindolyl)-2-propen-1-one derivatives obtained by a molecular hybridisation approach” (Journal of Enzyme Inhibition and Medicinal Chemistry, 2018)

Assays:
[1] = test system: bovine brain tubulin; assay: Inhibition of tubulin polymerisation (turbidimetric tubulin assembly); format: biochemical; conditions: tubulin 10 µM, 20 min at 30 °C; read-out: Tubulin assembly IC50±SD
Method: To evaluate the effect of the compounds on tubulin assembly in vitro[40], varying concentrations of compounds were preincubated with 10 μM bovine brain tubulin in 0.8M monosodium glutamate (pH adjusted to 6.6 with HCl in a 2.0M stock solution) at 30 °C and then cooled to 0 °C. After addition of 0.4 mM GTP, the mixtures were transferred to 0 °C cuvettes in a recording spectrophotometer and warmed to 30 °C. Tubulin assembly was followed turbidimetrically at 350 nm. […] The capacity of the test compounds to inhibit colchicine binding to tubulin was measured as described. The reaction mixtures contained 1 μM tubulin, 5 μM [^3H]colchicine and 5 μM test compound.

[2] = test system: U-937 cells overexpressing human Bcl-2 (U-937/Bcl-2); assay: MTT cytotoxicity assay, U-937/Bcl-2; format: cell-based; conditions: Homo sapiens, U-937, 72 h, U-937/Bcl-2, MTT, read-out: IC50, inhibition of cell growth
Method: U-937 (human myeloid leukaemia) cells from DSMZ (German Collection of Microorganisms and Cell Cultures, Braunschweig, Germany) and U-937 cells overexpressing human Bcl-2 protein (designated U-937/Bcl-2, donated by Dr Jacqueline Bréard, INSERM U749, Faculté de Pharmacie Paris-Sud., Châtenay-Malabry, France) were cultured in RPMI-1640 medium containing 10% (v/v) heat-inactivated foetal bovine serum, 100 μg/mL streptomycin and 100 U/mL penicillin, incubated at 37 °C in a humidified atmosphere containing 5% CO2 as described. The functioning of U-937/Bcl-2 cells was tested using the cytotoxic agent 1-β-D-arabino-furanosylcytosine as previously described. Human peripheral blood mononuclear cells (PBMC) were isolated from heparin-anticoagulated blood of healthy volunteers by centrifugation with Ficoll-Paque Plus (GE Healthcare Bio-Sciences AB, Uppsala, Sweden). PBMC were also stimulated with phytohemagglutinin (2 μg/mL) for 48 h before the experimental treatment. The trypan blue dye exclusion method was used for counting the living/dead cells by a hematocytometer with 95% viability in all experiments. The cytotoxicity of compounds was evaluated by the colorimetric 3-(4,5-dimethyl-2-thiazolyl-)-2,5-diphenyl-2H-tetrazolium bromide (MTT) assay as previously described. Briefly, 5 × 10^3 exponentially growing cells were seeded in 96-well microculture plates with increasing concentrations of compounds for 72 h. After the addition of MTT (0.5 mg/mL), cells were incubated at 37 °C for 4 h. Sodium dodecyl sulphate (10% w/v) in 0.05 M HCl was added to the wells and then incubated at room temperature overnight in the dark. Absorbance was measured at 570 nm. […] Values are mean ± SE from at least three independent experiments, each performed in triplicate. Compounds were dissolved in DMSO and kept in the dark at 25 °C.

[3] = test system: U-937/Bcl-2 cells; assay: Cell cycle phase distribution and apoptosis, flow cytometry (propidium iodide) and fluorescence microscopy, U-937/Bcl-2; format: cell-based, human
Method: (§1) Fluorescent microscopy and flow cytometric analysis of propidium iodide-stained cells were performed as described. Briefly, cells were harvested and fixed in 3% paraformaldehyde and incubated at room temperature for 10 min. The fixative was removed, and the cells were washed with PBS, resuspended in 30–50 μL of PBS containing 20 μg/mL bis-benzimide trihydrochloride (Hoechst 33258) and incubated at room temperature for 15 min. Stained nuclei were visualized using a Zeiss fluorescence microscope.
(§2) Flow cytometric analysis was carried out using a BD FACSVerse™ cytometer (BD Biosciences, San Jose, CA, USA).

[4] = test system: U-937 cells; assay: Cell cycle phase distribution and apoptosis, flow cytometry (propidium iodide) and fluorescence microscopy, U-937; format: cell-based, human
Method: as §1, §2

[5] = test system: human colon adenocarcinoma (HT29) cells; assay: Antiproliferative assay, cell counting (Coulter Counter), HT29; format: cell-based; conditions: HT29 cell line, ratio of IC50 values
Method: (§3) Human cervix carcinoma (HeLa), human colon carcinoma (HT29), human breast carcinoma (MCF-7) and human lymphoma (HL-60) cells (3–5 × 10^4 cells) and a serial (five-fold) dilution of the test compounds were added to a 96-well microtiter plate. The cells were incubated for 72–96 h (depending on the tumor cell line) at 37 °C in a humidified 5% CO2 atmosphere. At the end of the incubation period, the cells were counted in a Coulter Counter (Coulter Electronics Ltd, Harpenden Herts, UK). […] The IC50 values represent the average (±standard deviation) of at least two to four independent experiments.

[6] = test system: human promyelocytic leukemia (HL-60) cells; assay: Antiproliferative assay, cell counting (Coulter Counter), HL-60; format: cell-based; conditions: Homo sapiens; HL-60, 72–96 h; read-out: IC50, inhibition of proliferation
Method: as §3

CCOC(=O)c1[nH]c2ccc(OC)cc2c1/C=C/C(=O)c1cc(OC)c(OC)c(OC)c1 [Compound 9d, (E)-Ethyl 5-methoxy-3-(3-oxo-3-(3,4,5-trimethoxyphenyl)prop-1-en-1-yl)-1H-indole-2-carboxylate] was tested, and the IC50 [1] was greater than 20 µM, the IC50 [2] was 700 ± 200 nM and the “% G1” value ([3]; U-937/Bcl-2, 24 h, 0.3 µM) was 41.0 ± 1.3%. For the same molecule, the “% G2-M” value ([3]; U-937/Bcl-2, 24 h, 0.3 µM) was 29.7 ± 0.2%, the “% S” value ([3]; U-937/Bcl-2, 24 h, 0.3 µM) was 25.1 ± 1.1% and the “% Sub-G1” value ([3]; U-937/Bcl-2, 24 h, 0.3 µM) was 2.8 ± 0.2%. The “% G1” value ([3]; U-937/Bcl-2, 24 h, 1 µM) was 29.3 ± 0.3 %, the “% G2-M” value ([3]; U-937/Bcl-2, 24 h, 1 µM) was 35.7 ± 0.2 % and the “% S” value ([3]; U-937/Bcl-2, 24 h, 1 µM) was 28.7 ± 0.5%. The “% Sub-G1” value ([3]; U-937/Bcl-2, 24 h, 1 µM) was 4.6 ± 0.3%, the “% G1” value ([3]; U-937/Bcl-2, 48 h, 0.3 µM) was 49.1 ± 0.4% and the “% G2-M” value ([3]; U-937/Bcl-2, 48 h, 0.3 µM) was 18.9 ± 0.7%. The “% S” value ([3]; U-937/Bcl-2, 48 h, 0.3 µM) was 26.7 ± 2.2%, the “% Sub-G1” value ([3]; U-937/Bcl-2, 48 h, 0.3 µM) was 4.4 ± 1.0% and the “% G1” value ([3]; U-937/Bcl-2, 48 h, 1 µM) was 33.2 ± 2.3 %. The “% G2-M” value ([3]; U-937/Bcl-2, 48 h, 1 µM) was 31.0 ± 2.8 %, the “% S” value ([3]; U-937/Bcl-2, 48 h, 1 µM) was 27.4 ± 0.2% and the “% Sub-G1” value ([3]; U-937/Bcl-2, 48 h, 1 µM) was 6.5 ± 0.5%. The “% G1” value ([3]; U-937/Bcl-2, 72 h, 0.3 µM) was 53.6 ± 1.2%, the “% G2-M” value ([3]; U-937/Bcl-2, 72 h, 0.3 µM) was 20.0 ± 0.8% and the “% S” value ([3]; U-937/Bcl-2, 72 h, 0.3 µM) was 21.8 ± 1.4%. For the same molecule, the “% Sub-G1” value ([3]; U-937/Bcl-2, 72 h, 0.3 µM) was 3.1 ± 0.9%, the “% G1” value ([3]; U-937/Bcl-2, 72 h, 1 µM) was 41.6 ± 2.5 % and the “% G2-M” value ([3]; U-937/Bcl-2, 72 h, 1 µM) was 24.8 ± 2.6%. The “% S” value ([3]; U-937/Bcl-2, 72 h, 1 µM) was 24.0 ± 1.8%, the “% Sub-G1” value ([3]; U-937/Bcl-2, 72 h, 1 µM) was 7.5 ± 1.2% and the “apoptosis induction (fluorescence microscopy and flow cytometry)” value ([3]; U-937/Bcl-2 cells) was “only induced low apoptosis”. For the same molecule, the “% G1” value ([4]; U-937, 24 h, 3 µM) was 52.3 ± 0.2%, the “% G2-M” value ([4]; U-937, 24 h, 3 µM) was 21.2 ± 0.4% and the “% S” value ([4]; U-937, 24 h, 3 µM) was 21.8 ± 0.0%. The “% Sub-G1” value ([4]; U-937, 24 h, 3 µM) was 3.5 ± 0.3%, the “% G1” value ([4]; U-937, 24 h, 10 µM) was 44.9 ± 0.6% and the “% G2-M” value ([4]; U-937, 24 h, 10 µM) was 24.8 ± 0.3%. The “% S” value ([4]; U-937, 24 h, 10 µM) was 22.9 ± 0.4%, the “% Sub-G1” value ([4]; U-937, 24 h, 10 µM) was 5.6 ± 0.5% and the “% G1” value ([4]; U-937, 48 h, 3 µM) was 52.9 ± 0.9%. The “% G2-M” value ([4]; U-937, 48 h, 3 µM) was 18.3 ± 0.3%, the “% S” value ([4]; U-937, 48 h, 3 µM) was 25.8 ± 0.5% and the “% Sub-G1” value ([4]; U-937, 48 h, 3 µM) was 2.3 ± 0.1%. The “% G1” value ([4]; U-937, 48 h, 10 µM) was 55.3 ± 0.7%, the “% G2-M” value ([4]; U-937, 48 h, 10 µM) was 16.9 ± 0.5% and the “% S” value ([4]; U-937, 48 h, 10 µM) was 23.1 ± 0.1%. For the same molecule, the “% Sub-G1” value ([4]; U-937, 48 h, 10 µM) was 4.1 ± 0.4%, the “% G1” value ([4]; U-937, 72 h, 3 µM) was 53.6 ± 2.4% and the “% G2-M” value ([4]; U-937, 72 h, 3 µM) was 15.4 ± 1.0%. For the same molecule, the “% S” value ([4]; U-937, 72 h, 3 µM) was 21.3 ± 1.0%, the “% Sub-G1” value ([4]; U-937, 72 h, 3 µM) was 7.9 ± 0.2% and the “% G1” value ([4]; U-937, 72 h, 10 µM) was 55.1 ± 0.0%. The “% G2-M” value ([4]; U-937, 72 h, 10 µM) was 15.5 ± 0.8%, the “% S” value ([4]; U-937, 72 h, 10 µM) was 22.6 ± 0.7% and the “% Sub-G1” value ([4]; U-937, 72 h, 10 µM) was 5.4 ± 0.2%. For the same molecule, the “apoptosis induction (fluorescence microscopy and flow cytometry)” value ([4]; U-937 cells) was “not an apoptotic inducer”, the “fold more potent than CA-4” value [5] was 8–24 fold and the IC50 [6] was 3.4 ± 1 µM.
